Calls of active or inactive are those of the source. The calls are words filed in the database; no cut-off is given here.
Tests used:
[1] = target: T1, Glutamate carboxypeptidase 2 (Homo sapiens, UniProt Q04609); experiment: Inhibition of […] binding to PSMA in human PC3-PIP cells at 0.2 nM incubated for 1 hr; format: cell-based
Target sequence in this assay (Q04609 whole entry, looked up): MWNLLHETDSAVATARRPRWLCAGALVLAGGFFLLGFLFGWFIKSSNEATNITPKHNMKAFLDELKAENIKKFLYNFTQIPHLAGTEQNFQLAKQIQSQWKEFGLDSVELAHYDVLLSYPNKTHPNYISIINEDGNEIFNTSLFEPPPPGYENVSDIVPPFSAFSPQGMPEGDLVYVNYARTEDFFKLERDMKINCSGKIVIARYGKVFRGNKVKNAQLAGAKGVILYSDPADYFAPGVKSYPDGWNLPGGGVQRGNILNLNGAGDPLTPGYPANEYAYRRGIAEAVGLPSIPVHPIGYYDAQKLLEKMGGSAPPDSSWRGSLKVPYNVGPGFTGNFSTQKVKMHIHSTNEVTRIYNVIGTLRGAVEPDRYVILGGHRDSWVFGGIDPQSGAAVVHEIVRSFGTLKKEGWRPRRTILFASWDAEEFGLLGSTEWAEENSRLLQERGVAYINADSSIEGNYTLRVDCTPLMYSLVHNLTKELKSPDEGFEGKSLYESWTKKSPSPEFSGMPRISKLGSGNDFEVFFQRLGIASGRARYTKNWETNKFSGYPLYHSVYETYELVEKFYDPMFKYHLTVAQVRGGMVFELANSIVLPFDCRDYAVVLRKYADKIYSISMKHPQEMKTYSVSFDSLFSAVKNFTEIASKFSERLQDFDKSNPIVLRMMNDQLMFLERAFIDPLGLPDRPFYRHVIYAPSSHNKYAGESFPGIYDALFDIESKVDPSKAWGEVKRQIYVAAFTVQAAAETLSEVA

[2] = target: T1, Glutamate carboxypeptidase 2; experiment: Displacement of [125I]MIP-1095 from PSMA in human PC3-PIP cells after 1 hr by gamma counter analysis; format: cell-based
Target sequence in this assay (Q04609 whole entry): as the sequence (Q04609 whole entry, looked up) above

[3] = target: T1, Glutamate carboxypeptidase 2; experiment: Binding affinity to PSMA in human PC3-PIP cells assessed as drug uptake per 10^6 cells at 0.2 nM incubated for 1 hr followed by compound washout measured using 125I-labelled compound by gamma counter analysis; format: ADME, cell-based; details: 0.0002 µM
Target sequence in this assay (Q04609 whole entry): as the sequence (Q04609 whole entry, looked up) above

[4] = target: T1, Glutamate carboxypeptidase 2; experiment: Binding affinity to PSMA in human PC3-PIP cells assessed as drug uptake per 10^6 cells at 0.2 nM incubated for 2 hrs followed by compound washout measured using 125I-labelled compound by gamma counter analysis; format: ADME, cell-based; details: 0.0002 µM
Target sequence in this assay (Q04609 whole entry): as the sequence (Q04609 whole entry, looked up) above

[5] = Drug internalization in human PC3-PIP cells at 0.2 nM incubated for 1 hr followed by compound washout measured using 125I-labelled compound by gamma counter analysis; format: ADME, cell-based; details: 0.0002 µM
[6] = Drug internalization in human PC3-PIP cells at 0.2 nM incubated for 2 hrs followed by compound washout measured using 125I-labelled compound by gamma counter analysis; format: ADME, cell-based; details: 0.0002 µM
[7] = Drug uptake in liver of CD-1 nude mouse xenografted with PC3-PIP cells at 6 nM to 9 nM, iv measured at 1 hr using 125I-labelled compound by gamma counter analysis; format: ADME, organism-based; details: in vivo, 0.006 µM
[8] = Drug uptake in liver of CD-1 nude mouse xenografted with PC3-PIP cells at 6 nM to 9 nM, iv measured at 4 hrs using 125I-labelled compound by gamma counter analysis; format: ADME, organism-based; details: in vivo, 0.006 µM
[9] = Drug uptake in liver of CD-1 nude mouse xenografted with PC3-PIP cells at 6 nM to 9 nM, iv measured at 24 hrs using 125I-labelled compound by gamma counter analysis; format: ADME, organism-based; details: in vivo, 0.006 µM
[10] = Drug uptake in human PC3-PIP cells at 0.2 nM incubated prior to compound washout measured using 125I-labelled compound by gamma counter analysis; format: ADME, cell-based; details: 0.0002 µM, TDE = time-dependent effect
[11] = Drug uptake in kidney of CD-1 nude mouse xenografted with PC3-PIP cells at 6 nM to 9 nM, iv measured after 2 mins to 1440 mins using 125I-labelled compound by gamma counter analysis; format: ADME, organism-based; details: in vivo, 0.006 µM
[12] = Drug uptake in human PC3-PIP cells at 0.2 nM incubated for 1 hr in presence of PSMA inhibitor PSMA-617 measured using 125I-labelled compound by gamma counter analysis; format: ADME, cell-based; details: 0.0002 µM
[13] = Drug uptake in tumor of CD-1 nude mouse xenografted with PC3-PIP cells at 6 nM to 9 nM, iv measured at 4 hrs using 125I-labelled compound by gamma counter analysis; format: ADME, organism-based, Neoplasm; details: in vivo, 0.006 µM
[14] = Drug uptake in kidney of CD-1 nude mouse xenografted with PC3-PIP cells at 6 nM to 9 nM, iv measured at 1 hr using 125I-labelled compound by gamma counter analysis; format: ADME, organism-based; details: in vivo, 0.006 µM
[15] = Drug uptake in tumor of CD-1 nude mouse xenografted with PC3-PIP cells at 6 nM to 9 nM, iv measured at 1 hr using 125I-labelled compound by gamma counter analysis; format: ADME, organism-based, Neoplasm; details: in vivo, 0.006 µM
[16] = Drug uptake in kidney of CD-1 nude mouse xenografted with PC3-PIP cells at 6 nM to 9 nM, iv measured at 4 hrs using 125I-labelled compound by gamma counter analysis; format: ADME, organism-based; details: in vivo, 0.006 µM
[17] = Clearance in tumor of CD-1 nude mouse xenografted with PC3-PIP cells at 6 nM to 9 nM, iv measured at 4 hrs using 125I-labelled compound by gamma counter analysis; format: ADME, organism-based, Neoplasm; details: in vivo, 0.006 µM
[18] = Drug uptake in spleen of CD-1 nude mouse xenografted with PC3-PIP cells at 6 nM to 9 nM, iv measured at 4 hrs using 125I-labelled compound by gamma counter analysis; format: ADME, organism-based; details: in vivo, 0.006 µM
[19] = Drug uptake in tumor of CD-1 nude mouse xenografted with PC3-PIP cells at 6 nM to 9 nM, iv measured at 24 hrs using 125I-labelled compound by gamma counter analysis; format: ADME, organism-based, Neoplasm; details: in vivo, 0.006 µM
[20] = Uptake in kidney of CD-1 nude mouse xenografted with PC3-PIP cells at 6 nM to 9 nM, iv measured at 1 hr using 125I-labelled compound by gamma counter analysis; details: in vivo, 0.006 µM
[21] = Uptake in kidney of CD-1 nude mouse xenografted with PC3-PIP cells at 6 nM to 9 nM, iv measured at 4 hrs using 125I-labelled compound by gamma counter analysis; details: in vivo, 0.006 µM
[22] = Uptake in kidney of CD-1 nude mouse xenografted with PC3-PIP cells at 6 nM to 9 nM, iv measured at 24 hrs using 125I-labelled compound by gamma counter analysis; details: in vivo, 0.006 µM
[23] = Drug uptake in liver of CD-1 nude mouse xenografted with PC3-PIP cells at 6 nM to 9 nM, iv measured at 2 mins using 125I-labelled compound by gamma counter analysis; format: ADME, organism-based; details: in vivo, 0.006 µM
[24] = Drug uptake in large intestine of CD-1 nude mouse xenografted with PC3-PIP cells at 6 nM to 9 nM, iv measured at 4 hrs using 125I-labelled compound by gamma counter analysis; format: ADME, organism-based; details: in vivo, 0.006 µM
[25] = Drug uptake in small intestine of CD-1 nude mouse xenografted with PC3-PIP cells at 6 nM to 9 nM, iv measured at 1 hr using 125I-labelled compound by gamma counter analysis; format: ADME, organism-based; details: in vivo, 0.006 µM
[26] = Drug uptake in kidney of CD-1 nude mouse xenografted with PC3-PIP cells at 6 nM to 9 nM, iv measured at 24 hrs using 125I-labelled compound by gamma counter analysis; format: ADME, organism-based; details: in vivo, 0.006 µM
[27] = Drug uptake in large intestine of CD-1 nude mouse xenografted with PC3-PIP cells at 6 nM to 9 nM, iv measured at 1 hr using 125I-labelled compound by gamma counter analysis; format: ADME, organism-based; details: in vivo, 0.006 µM

Structure (SMILES)	inhibition [1]	Drug uptake [3] [%ID]	Drug uptake [4] [%ID]	Drug uptake [5] [%]	Drug uptake [6] [%]	Drug uptake [10]	Drug uptake [11]	Drug uptake [12]	also measured
O=C(O)CC[C@H](NC(=O)N[C@@H](CCCCNC(=O)[C@H](Cc1ccccc1)NC(=O)COc1ccc(C[C@H](NC(=O)Nc2ccc(I)cc2)C(=O)O)cc1)C(=O)O)C(=O)O	Active	–	–	–	–	–	–	–	IC50 [2]: 13 nM
O=C(O)CC[C@H](NC(=O)N[C@@H](CCCCNC(=O)Nc1ccc([125I])cc1)C(=O)O)C(=O)O	–	40	53	38	47	Tde	Active	Not Active	Drug uptake [7]: 10.2 % ID/g; Drug uptake [8]: 6.45 % ID/g; Drug uptake [9]: 0.71 % ID/g
O=C(O)CC[C@H](NC(=O)N[C@@H](CCCCNC(=O)[C@H](Cc1ccccc1)NC(=O)COc1ccc(C[C@H](NC(=O)[C@H](CCC(=O)O)NC(=O)[C@H](CCC(=O)O)NC(=O)c2ccc(I)cc2)C(=O)O)cc1)C(=O)O)C(=O)O	Active	–	–	–	–	–	–	–	IC50 [2]: 3.52 nM
O=C(O)CC[C@H](NC(=O)N[C@@H](CCCCNC(=O)[C@H](Cc1ccccc1)NC(=O)[C@H](CCC(=O)O)NC(=O)c1ccc(I)cc1)C(=O)O)C(=O)O	Active	–	–	–	–	–	–	–	–
O=C(O)CC[C@H](NC(=O)N[C@@H](CCCCNC(=O)[C@H](Cc1ccccc1)NC(=O)[C@H](CCC(=O)O)NC(=O)c1ccc([125I])cc1)C(=O)O)C(=O)O	–	43	76	36	45	Tde	Active	Not Active	Drug uptake [13]: 5.17 % ID/g; Drug uptake [14]: 41.4 % ID/g; Drug uptake [15]: 10.7 % ID/g; Drug uptake [16]: 25.4 % ID/g
O=C(O)CC[C@H](NC(=O)N[C@@H](CCCCNC(=O)[C@H](Cc1ccccc1)NC(=O)COc1ccc(C[C@H](NC(=O)[C@H](CCC(=O)O)NC(=O)c2ccc(I)cc2)C(=O)O)cc1)C(=O)O)C(=O)O	Active	–	–	–	–	–	–	–	–
O=C(O)CC[C@H](NC(=O)N[C@@H](CCCCNC(=O)[C@H](Cc1ccccc1)NC(=O)COc1ccc(C[C@H](NC(=O)[C@H](CCC(=O)O)NC(=O)c2ccc([125I])cc2)C(=O)O)cc1)C(=O)O)C(=O)O	–	49	76	58	60	Tde	Active	Not Active	Drug uptake [13]: 14.3 % ID/g; Drug uptake [14]: 174.6 % ID/g; Drug uptake [15]: 26.2 % ID/g; Drug uptake [16]: 114.7 % ID/g; CL [17]: 45%; Drug uptake [18]: 15.4 % ID/g
O=C(O)CC[C@H](NC(=O)N[C@@H](CCCCNC(=O)[C@H](Cc1ccccc1)NC(=O)COc1ccc(C[C@H](NC(=O)[C@H](CCC(=O)O)NC(=O)[C@H](CCC(=O)O)NC(=O)c2ccc([125I])cc2)C(=O)O)cc1)C(=O)O)C(=O)O	–	39	67	62	64	Tde	Active	Not Active	Drug uptake [13]: 17.4 % ID/g; Drug uptake [15]: 17.2 % ID/g; Drug uptake [19]: 11.1 % ID/g; Drug uptake [20]: 127.8 % ID/g; Drug uptake [21]: 138.1 % ID/g; Drug uptake [22]: 136.4 % ID/g
O=C(O)CC[C@H](NC(=O)N[C@@H](CCCCNC(=O)Nc1ccc(I)cc1)C(=O)O)C(=O)O [MIP-1095]	–	–	–	–	–	–	–	–	IC50 [2]: 3 nM
O=C(O)CC[C@H](NC(=O)N[C@@H](CCCCNC(=O)[C@H](Cc1ccccc1)NC(=O)[C@H](CCC(=O)O)NC(=O)[C@H](CCC(=O)O)NC(=O)c1ccc(I)cc1)C(=O)O)C(=O)O	Active	–	–	–	–	–	–	–	–
O=C(O)CC[C@H](NC(=O)N[C@@H](CCCCNC(=O)[C@H](Cc1ccccc1)NC(=O)COc1ccc(C[C@H](NC(=O)CNC(=O)c2ccc(I)cc2)C(=O)O)cc1)C(=O)O)C(=O)O	Active	–	–	–	–	–	–	–	IC50 [2]: 1.33 nM
O=C(O)CC[C@H](NC(=O)N[C@@H](CCCCNC(=O)[C@H](Cc1ccccc1)NC(=O)COc1ccc(C[C@H](NC(=O)Nc2ccc([125I])cc2)C(=O)O)cc1)C(=O)O)C(=O)O	–	31	60	73	76	Tde	Not Active	Not Active	Drug uptake [23]: 50.6 % ID/g; Drug uptake [24]: 51.4 % ID/g; Drug uptake [25]: 49.7 % ID/g
O=C(O)CC[C@H](NC(=O)N[C@@H](CCCCNC(=O)[C@H](Cc1ccccc1)NC(=O)[C@H](CCC(=O)O)NC(=O)[C@H](CCC(=O)O)NC(=O)c1ccc([125I])cc1)C(=O)O)C(=O)O	–	43	75	37	47	Tde	Active	Not Active	Drug uptake [13]: 23.1 % ID/g; Drug uptake [14]: 71.8 % ID/g; Drug uptake [15]: 18.5 % ID/g; Drug uptake [16]: 80.3 % ID/g; Drug uptake [19]: 17 % ID/g; Drug uptake [26]: 6.91 % ID/g; Drug uptake [7]: 7.18 % ID/g; Drug uptake [8]: 3.64 % ID/g; Drug uptake [9]: 0.17 % ID/g
O=C(O)CC[C@H](NC(=O)N[C@@H](CCCCNC(=O)[C@H](Cc1ccccc1)NC(=O)COc1ccc(C[C@H](NC(=O)CNC(=O)c2ccc([125I])cc2)C(=O)O)cc1)C(=O)O)C(=O)O	–	36	52	51	55	Tde	Not Active	Not Active	Drug uptake [23]: 29.4 % ID/g; Drug uptake [27]: 21.6 % ID/g; Drug uptake [24]: 9.98 % ID/g

— ChEMBL document CHEMBL4627264, “Synthesis and evaluation of novel radioiodinated PSMA targeting ligands for potential radiotherapy of prostate cancer” (Bioorg Med Chem, 2020)
